The source of these data is US20200289425A1, “CARBON DOT LIPOSOMES AND USES THEREOF” (National Taiwan University, priority 2017, published 2020).

Usually IC50 stands for the concentration at which inhibition is half-maximal.

A short description of data set [1]: Degradation of drugs, standing in water for 48 hrs (HPLC or ICP MS). Type of data set: physicochemical. As to conditions: standing for 48 hrs. The method, then: In this example, the degradation of drug molecules encapsulated in the drug containing vesicles and that of free drugs were investigated. To this purpose, the drug containing vesicles of examples 1.2 or 1.3 or the free drug were placed in water, and let standing for 48 hrs, then the amounts of each drugs in the water were measured by HPLC or ICP MS.

Data set [2] deals with A375.S2 cells. Kind of data set: Cancer cell growth, Alamar Blue assay, A375. It is filed as cell-based. As to conditions: A375, 48 hr culture. The source says: (§1) Cell lines and cell culture. A549, Hela, MCF-7, Huh7, C2BBe1, BxPC-3, A375.S2, CCRF-CEM, TrampC1 and NIH 3T3 cells were obtained from the American Type Culture Collection (ATCC; Manassas, Va., USA). A549, Hela, Huh7, A375.S2, TrampC1, and NIH 3T3 cells were maintained in Dulbecco's minimal essential medium (DMEM) supplemented with 1.5 g/L sodium bicarbonate,10% fetal bovine serum (FBS), 1.0% antibiotic-antimycotic, L-glutamine (2.0×10^−3 M), and 1.0% nonessential amino acids. MCF-7, BxPC-3 and CCRF-CEM cells were cultured in Roswell Park Memorial Institute (RPMI) medium supplemented with 10% FBS, and 1.0% antibiotic-antimycotic. C2BBe1 cells were grown in DMEM 1.5 g/L sodium bicarbonate, 1.0% antibiotic-antimycotic, L-glutamine (2.0×10^−3 M), and 1.0% nonessential amino acids, 10 mg/L human holo-transferrin, and 10% fetal bovine serum. The cell number and viability of the cells were determined by the trypan blue exclusion method and Alamar Blue assay, respectively.
(§2) The assay is designed to measure quantitatively the proliferation of cell by use of a fluorometric/colorimetric growth indicator based on detection of metabolic activity. Specifically, the alamar blue system incorporates an oxidation-reduction (REDOX) indicator that both fluoresces and changes color in response to chemical reduction of growth medium resulting from cell growth. As cells being tested grow, innate metabolic activity results in a chemical reduction of the system. Continued growth maintains a reduced environment while inhibition of growth maintains an oxidized environment. Reduction related to growth causes the REDOX indicator to change from oxidized (non-fluorescent, blue) form to reduced (fluorescent, red) form.
(§3) Cell viability was determined by Alamar Blue assay in accordance with the manufacturer's protocols.
(The colour change of resazurin is a common sign of viable cells or microbes.)

Data set [3] deals with colon cancer cells C2BBE1. Kind of data set: Cancer cell growth, Alamar Blue assay, C2BBE1. As to conditions: C2BBE1, 48 hr culture. Type of data set: cell-based.
Source text: as §1, §2, §3

The test system of data set [4] is lung cancer cells A549. Kind of data set: Cancer cell growth, Alamar Blue assay, A549. Type of data set: cell-based. As to conditions: A549, 48 hr culture.
Source text: as §1, §2, §3

Data set [5] has as its system cervical cancer cells Hela. Kind of data set: Cancer cell growth, Alamar Blue assay, HeLa. It is filed as cell-based. Particulars: 48 hr culture.
Source text: as §1, §2, §3

The test system of data set [6] is hepatoma cells Huh7. Kind of data set: Cancer cell growth, Alamar Blue assay, Huh7. Type of data set: cell-based. Particulars: Huh7, 48 hr culture.
Source text: as §1, §2, §3

Data set [7] deals with pancreatic cancer cells BxPC3. In words: Cancer cell growth, Alamar Blue assay, BxPC3. It is filed as cell-based. Particulars: BxPC3, 48 hr culture.
Source text: as §1, §2, §3

Data set [8] concerns breast cancer cells MCF7. In words: Cancer cell growth, Alamar Blue assay, MCF7. Type of data set: cell-based. Particulars: MCF7, 48 hr culture.
Source text: as §1, §2, §3

For data set [9] the following is noted: free drug; cited from earlier work.

For `CC(C)C[C@H](NC(=O)[C@H](CCc1ccccc1)NC(=O)CN1CCOCC1)C(=O)N[C@@H](Cc1ccccc1)C(=O)N[C@@H](CC(C)C)C(=O)[C@@]1(C)CO1` [Carfilzomib], the “Percentage of drugs remained un-degraded” value in data set [1] turned out to be 48.5%. Moreover, the IC50 in [2] (A375-S2) was 750 µM; in data set [3] (Homo sapiens), 1.6 µM; in data set [4] (Homo sapiens) it was 1.8 µM; in data set [5] (Homo sapiens) it was 1.3 µM; in [6] (Homo sapiens, Huh-7), 0.7 µM; in data set [7] (Homo sapiens, BXPC-3), 0.08 µM. The compound also registered an IC50 in data set [8] (Homo sapiens) of 0.1 µM.
Turning to `CC(=O)O[C@H]1C(=O)[C@@]2(C)[C@H]([C@H](OC(=O)c3ccccc3)[C@]3(O)C[C@H](OC(=O)[C@H](O)[C@@H](NC(=O)c4ccccc4)c4ccccc4)C(C)=C1C3(C)C)[C@]1(OC(C)=O)CO[C@@H]1C[C@@H]2O` [Paclitaxel], the “Solubility of the anti-cancer drug” value in data set [9] was 5.6 mg/L.
On to `N.N.[Cl][Pt][Cl]` [Cisplatin], for which the IC50 in [2] stood at 9.2 µM; in data set [3], 11 µM; in data set [4], 6.5 µM; in data set [5], 3.1 µM; in data set [6], 6.3 µM; in [7] it was 4.8 µM. The compound further returned an IC50 in [8] of 33 µM.
As for `Nc1ccn([C@@H]2O[C@H](CO)[C@@H](O)C2(F)F)c(=O)n1` [Gemcitabine], the “Percentage of drugs remained un-degraded” value in data set [1] is recorded as 58.8%. Besides, the IC50 in data set [2] (A375-S2) came out at 66 µM; in [3] (Homo sapiens), 170 µM; in data set [4] (Homo sapiens), 17 µM; in [5] (Homo sapiens) it was 94 µM; in [6] (Homo sapiens, Huh-7), 1 µM; in [7] (Homo sapiens, BXPC-3), 51 µM. In [8] (Homo sapiens), this compound showed an IC50 of 48 µM. The “Solubility of the anti-cancer drug” value in data set [9] is listed as 51,000 mg/L.
For `CC(=O)O[C@@]12CO[C@@H]1C[C@H](O)[C@@]1(C)C(=O)[C@H](O)C3=C(C)[C@@H](OC(=O)[C@H](O)[C@@H](NC(=O)OC(C)(C)C)c4ccccc4)C[C@@](O)([C@@H](OC(=O)c4ccccc4)[C@H]21)C3(C)C` [Docetaxel], in data set [1], the “Percentage of drugs remained un-degraded” value is on record as 83.6%. For the same compound, the IC50 in data set [2] (A375-S2) came to 29 µM; in data set [3] (Homo sapiens), 100 µM; in data set [4] (Homo sapiens), 1 µM; in data set [5] (Homo sapiens), 0.67 µM; in data set [6] (Homo sapiens, Huh-7) it was 0.01 µM; in data set [7] (Homo sapiens, BXPC-3), 4.7 µM. In data set [8] (Homo sapiens), this compound yielded an IC50 of 6.3 µM. The “Solubility of the anti-cancer drug” value in data set [9] is 0.27 mg/L.
Regarding `COc1cccc2c1C(=O)c1c(O)c3c(c(O)c1C2=O)C[C@@](O)(C(=O)CO)C[C@@H]3O[C@H]1C[C@H](N)[C@H](O)[C@H](C)O1` [Doxorubicin], the “Percentage of drugs remained un-degraded” value in data set [1] is 69.5%. Further, the IC50 in [2] (A375-S2) stood at 0.75 µM; in data set [3] (Homo sapiens), 13 µM; in data set [4] (Homo sapiens), 0.04 µM; in [5] (Homo sapiens) it was 1.7 µM; in data set [6] (Homo sapiens, Huh-7), 0.49 µM; in data set [7] (Homo sapiens, BXPC-3), 0.58 µM. In addition, half-maximal inhibition in [8] (Homo sapiens) (IC50) required 2 µM. Moreover, in [9], the “Solubility of the anti-cancer drug” value is on record as 2,600 mg/L.
